Where a name gives a salt, the structure may show the parent alone.

The assay concerns tryptase purified from human lung or skin tissue preparations or human mast cell line (HMC-1). The experiment in a line: In vitro Tryptase Inhibition Assay. The settings on record: substrate tosyl-Gly-Pro-Lys-p-nitroanilide; Tris-HCl pH 8.2; zinc chloride 150 μM; 1 hour preincubation at room temperature; read-out: Ki (apparent inhibition constant, tryptase inhibitory activity). It counts as biochemical. As to the method: Tryptase solution ([…]) was prepared by dissolving tryptase purified from human lung or skin tissue preparations or human mast cell line (HMC-1) or obtained from commercial sources, e.g., ICN Biomeidals, Irvine, Calif., Athens Research & Technology, Athens, Ga., etc., in a solvent mixture comprising: 10 mM 2-N-morpholinoethane sulfonic acid, 2 mM CaCl2, 20% glycerol and 50 µg/mL heparin. Substrate solution containing 2 mM synthetic tripeptide (tosyl-Gly-Pro-Lys-p-nitroanilide) was obtained from Sigma. Test Compound solutions were prepared by diluting a stock solution (1 mg of test Compound in 200 μL of dimethylsulfoxide (DMSO)) by ten-fold into assay buffer (comprising: Tris-HCl (pH 8.2), 50 mM; NaCl, 100 MM; 0.05% polyoxyethylenesorbitan monolaurate (Tween-20®); and zinc chloride, 150 μM) and then making seven additional three-fold dilutions into 10% DMSO in assay buffer.
Aliquots (50 μL) from each of the eight dilutions of test compound solution were added to separate wells in a 96-well U-bottom microtiter plate. Typtase solution (25 μL) was added to each well and the solutions were mixed 1 hour at room temperature. Substrate solution (25 μL) was added to initiate the enzymatic reaction and the microtiter plates were immediately transferred to a UVIMAX Kinetic Microplate Reader (Molecular Devices). The hydrolysis of the chromogenic substrate was followed spectrophotometrically at 405 nanometers for five minutes. Initial velocity measurements were calculated from the progress curves by kinetic analysis program (BatchKi; Petr Kuzmic, University of Wisconsin, Madison, Wis.). Apparent inhibition constants (K) were calculated from the enzyme progress curves using standard mathematical models.
On to “2-(5-Guanidino-1H-benzoimidazol-2-ylmethyl)-N-(2-naphthalen-1-ylethyl)-3-methyl-3H-benzoimidazole-5-carboxyamide [Compound 28]”, for which the Ki was 0.07 nM. As to `NCc1ccc2[nH]c(Cc3nc4cc(C(=O)NCCCCc5ccccc5)ccc4[nH]3)nc2c1` [Compound 1, 2-(5-Aminomethyl-1H-benzoimidazol-2-ylmethyl)-N-(4-phenylbutyl)-1H-benzoimidazole-5-carboxamide trifluoroacetate], the Ki came out at 90 nM. For `Cn1c(Cc2nc3cc(CN)ccc3[nH]2)nc2cc(C(=O)NCCCN)ccc21` [Compound 12, 2-(5-Aminomethyl-1H-benzoimidazol-2-ylmethyl)-N-(3-aminopropyl)-1-methyl-1H-benzoimidazole-5-carboxamide], the Ki amounted to 29000 nM.

As to `NCc1ccc2[nH]c(Cc3nc4cc(OCCCCc5ccccc5)ccc4[nH]3)nc2c1` [Compound 26, C-{2-[5-(4-phenylbutoxy)-1H-benzoimidazol-2-ylmethyl]-1H-benzoimidazol-5-yl}methylamine], the Ki amounted to 33000 nM. The result for `NCc1ccc2[nH]c(Cc3nc4cc(NC(=O)OCCc5ccccc5)ccc4[nH]3)nc2c1` [Compound 27, 2-Phenylethyl 2-(5-aminomethyl-1H-benzoimidazol-2-ylmethyl)-1H-benzoimidazole-5-carbamate trifluoroacetate] reads 600 nM. The result for `CCOC(=O)c1ccccc1CCCC(=O)N1CCc2[nH]c(C(C)c3nc4cc(NC(=N)N)ccc4[nH]3)nc2C1` (stereo not drawn) [Compound 29, Ethyl 2-(4-{2-[1-(5-guanidino-1H-benzoimidazol-2-yl)ethyl]-1,4,6,7-tetrahydroimidazo[4,5-c]pyridin-5-yl}-4-oxobutyl)benzoate] reads 0.8 nM; that for `COc1ccccc1OCCNC(=O)c1ccc2nc(C(C)c3nc4cc(O)ccc4[nH]3)n(C)c2c1` (stereo not drawn) [Compound 30, 2-[1-(5-Hydroxy-1H-benzoimidazol-2-yl)ethyl]-N-[2-(2-methoxyphenoxy)ethyl]-3-methyl-3H-benzoimidazole-5-carboxamide], 9 nM. The result for `CCCCOC(=O)c1ccccc1OCCNC(=O)c1ccc2nc(C(C)c3nc4cc(O)ccc4[nH]3)n(C)c2c1` (stereo not drawn) [Compound 37, butyl 2-(2-{2-[l-(5-hydroxy-1H-benzoimidazol-2-yl)ethyl]-3-methyl-3H-benzoimidazol-5-ylcarbonylamino}ethoxy)benzoate] reads 2 nM; that for `CCCOC(=O)c1ccccc1OCCNC(=O)c1ccc2nc(C(C)c3nc4cc(O)ccc4[nH]3)n(C)c2c1` (stereo not drawn) [Compound 42, propyl 2-(2-{2-[1-(5-hydroxy-1H-benzoimidazol-2-yl)ethyl]-3-methyl-3H-benzoimidazol-5-ylcarbonylamino}ethoxy)benzoate], 8 nM; that for `CC(C)COC(=O)c1ccccc1OCCNC(=O)c1ccc2nc(C(C)c3nc4cc(O)ccc4[nH]3)n(C)c2c1` (stereo not drawn) [Compound 43, isobutyl 2-(2-{2-[1-(5-hydroxy-1H-benzoimidazol-2-yl)ethyl]-3-methyl-3H-benzoimidazol-5-ylcarbonylamino}ethoxy)benzoate], 2 nM. Consider `CC(=N)N1CCc2[nH]c(C(C)c3nc4ccc(C(=O)NCCOc5ccccc5C(=O)O)cc4n3C)nc2C1` (stereo not drawn) [Compound 74, 2-[2-(2-{1-[5-(1-iminoethyl)-4,5,6,7-tetrahydro-1H-imidazo[4,5-c]pyridin-2-yl]ethyl}-3-methyl-3H-benzoimidazol-5-ylcarbonylamino)ethoxy]benzoic acid], for which the Ki is 6 nM. As for `CCOC(=O)c1ccccc1OCCNC(=O)c1ccc2nc(C(C)c3nc4c(F)cc(F)c(F)c4[nH]3)n(C)c2c1` (stereo not drawn) [Compound 75, ethyl 2-(2-{2-[1-(4,6,7-trifluoro-1H-benzoimidazol-2-yl)ethyl]-3-methyl-3H-benzoimidazol-5-carbonylamino}ethoxy}benzoate], the Ki is 30 nM.

The record behind these values is US6562854B2, “Compositions comprising a substituted benzimidazole useful for treating immunomediated inflammatory disorders” (Axys Pharmaceuticals, Inc., priority 1994, dated 2003).
